Measured values from patent US4281121A, “1,3,4-Thiadiazole-2-carboxylic acid derivatives, process for making the same and fungicidal and nematocidal compositions containing same” (Schering Aktiengesellschaft, priority 1978, dated 1981).
Where two headings read alike, the source gives them in different places.

What was measured:
Plasmopara viticola = experiment: Prophylactic leaf treatment of grapevines in the hothouse against Plasmopara viticola; assay type: in vivo
Description: Effects of prophylactic leaf treatment of grapevines in the hothouse against Plasmopara viticola
Young grapevine plants having from 5 to 8 leaves were sprayed dripping wet with the concentrations of active agents stated in the table below. After drying of the spray deposit the leaves were sprayed with an aqueous suspension of sporangia of the fungus (about 20,000 per ml); the spraying was applied to the bottom side of the leaves. The plants were then immediately incubated in a hothouse at a temperature of 22° to 24° C. and at maximum water saturation in the atmosphere. Beginning with the second day the humidity of the air was reduced for 3 to 4 days to normal level (30 to 70% saturation) and was then maintained for another day on the level of full saturation. Subsequently, the percentage portion of the fungus infested surface of each leaf was noted and the average per treatment was calculated in order to determine the fungicidal activity. This was done on the basis of the following formula: [formula]
The active compounds were applied in the form of a 20% concentration spray powder.

Helminthosporium gram = details: about 5 weeks
Description: Treatment of barley seeds infested with Helminthosporium gram
After emergence, the plants were subjected to illumination for 12 hours per day. After about 5 weeks the infested plants were counted and the total number of plants for each test were also counted. The active agents tested were used as pulverulent compositions.

Pythium ultimum = experiment: Threshold concentration test for use of the compounds against Pythium ultimum (infested soil, garden peas); assay type: in vivo; set-up: key to root evaluation (1-4): 4: white roots without fungous necrosis; 3: white roots, minor fungous necrosis; 2: brown roots, already more pronounced fungous necrosis; 1: heavy fungous necrosis, roots rotted; details: for root evaluation (1-4): 3 weeks; for number of sound peas: 20 grains per dish, 3 weeks at 20-24° C.
Description: Threshold concentration test for use of the compounds against Pythium ultimum
A 20% concentration of certain pulverulent active agents as listed below were mixed in uniform manner into a soil which had been heavily infested by Pythium ultimum. The thus treated soil was then placed into clay dishes of a capacity of 0.5 l earth. Without any intermediate time lapse 20 grain of garden peas (Pisum sativum L. convar. medullare Alef.) of the type "Wunder von Kelvedon" were then seeded into each of the clay dishes. After a cultivation period of three weeks at 20° to 24° C. in a hothouse the number of sound peas was determined and a root evaluation was carried out. The active agents amounts and results appear from the following table.
(§1) The root evaluation was carried out on a scale from 1 to 4 as follows: […]

Tilletia caries = experiment: Treatment of oat seeds infested with Tilletia caries (spore germination); assay type: in vivo
[1] = test system: Helminthosporium gramineum; experiment: Seed treatment in open field tests for infestation by Helminthosporium gramineum (barley); assay type: in vivo; details: summer barley; 50 g active agent/100 kg barley; about 3 months
Description: Seed treatment in open field tests for infestation by Helminthosporium gramineum
The active agents were used in the form of pulverulent compositions. After about 8 months in case of winter barley and after about 3 months in case of summer barley the infested plants were counted and the activity was calculated by the formula [formula]

Fusarium avenaceum = experiment: Threshold concentration test in case of Fusarium avenaceum (infested soil, garden peas); assay type: in vivo; details: for number of sound peas: 20 grains per dish, 18 days at 20-24° C.; for root evaluation (1-4): 18 days
Description: Threshold concentration test in case of Fusarium avenaceum
A 20% pulverulent active agent of the type further identified in the table below was mixed in uniform manner with a soil which had been heavily infested with Fusarium avenaceum. The thus treated soil was then placed into clay dishes of a capacity of 0.5 l of earth. Each dish was seeded without any intervening time with 20 grains of garden peas (Pisum sativum L. convar. medullare Alef.) of the type "Wunder von Kelvedon". After a cultivation time of 18 days at 20° to 24° C. in a hot house the number of sound peas was determined and a root evaluation was carried out. The active agents employed, the amounts and results appear from the following table.
as §1

Piricularia oryzae = assay type: in vivo; details: concentration of active agent 0.1 (percentages); 5 days
[2] = concentration of active agent 0.025 (unit not given)
[3] = concentration of active agent 0.001 (unit not given)
[4] = concentration of active agent 0.005 (unit not given)

COCCNC(=O)c1nnc([S+](C)[O-])s1 (stereo not drawn) [5-methylsulfinyl-1,3,4-thiadiazole-2-carboxylic acid-(2-methoxyethyl)-amide]
% activity (Plasmopara viticola; [2]): 96% | % activity (Helminthosporium gram; 10 g active agent per 100 kg): 75% | % activity (Helminthosporium gram; 20 g active agent per 100 kg): 97% | % activity (Helminthosporium gram; 50 g active agent per 100 kg): 100%

C[S+]([O-])c1nnc(C(=O)N2CCC2)s1 (stereo not drawn) [5-methylsulfinyl-1,3,4-thiadiazole-2-carboxylic acid-N,N-trimethylenamide]
root evaluation (1-4) (Pythium ultimum; 20 mg/l soil): 2 | number of sound peas (Pythium ultimum; 20 mg/l soil): 12 | root evaluation (1-4) (Pythium ultimum; 40 mg/l soil): 4 | number of sound peas (Pythium ultimum; 40 mg/l soil): 16 | root evaluation (1-4) (Pythium ultimum; 80 mg/l soil): 4 | number of sound peas (Pythium ultimum; 80 mg/l soil): 19 | % activity (Tilletia caries; 20 g active agent per 100 kg): 96% | % activity (Tilletia caries; 50 g active agent per 100 kg): 100% | % activity (Plasmopara viticola; [3]): 86% | % activity (Plasmopara viticola; [4]): 93% | % activity (Plasmopara viticola; [2]): 94% | % activity (Helminthosporium gram; 20 g active agent per 100 kg): 95% | % activity (Helminthosporium gram; 50 g active agent per 100 kg): 100%

C=CCNC(=O)c1nnc([S+](C)[O-])s1 (stereo not drawn) [5-methylsulfinyl-1,3,4-thiadiazole-2-carboxylic acid-allylamide]
root evaluation (1-4) (Pythium ultimum; 20 mg/l soil): 4 | number of sound peas (Pythium ultimum; 20 mg/l soil): 20 | root evaluation (1-4) (Pythium ultimum; 40 mg/l soil): 4 | number of sound peas (Pythium ultimum; 40 mg/l soil): 19 | root evaluation (1-4) (Pythium ultimum; 80 mg/l soil): 4 | number of sound peas (Pythium ultimum; 80 mg/l soil): 18 | % activity (Tilletia caries; 10 g active agent per 100 kg): 99.2% | % activity (Tilletia caries; 20 g active agent per 100 kg): 100% | % activity (Tilletia caries; 50 g active agent per 100 kg): 100% | % activity [1]: 100% | % activity (Plasmopara viticola; [2]): 90% | % activity (Helminthosporium gram; 10 g active agent per 100 kg): 94% | % activity (Helminthosporium gram; 20 g active agent per 100 kg): 99% | % activity (Helminthosporium gram; 50 g active agent per 100 kg): 100%

C[S+]([O-])c1nnc(C(=O)NC2CC2)s1 (stereo not drawn) [5-methylsulfinyl-1,3,4-thiadiazole-2-carboxylic acid-cyclopropylamide]
root evaluation (1-4) (Pythium ultimum; 20 mg/l soil): 1 | number of sound peas (Pythium ultimum; 20 mg/l soil): 15 | root evaluation (1-4) (Pythium ultimum; 40 mg/l soil): 4 | number of sound peas (Pythium ultimum; 40 mg/l soil): 20 | root evaluation (1-4) (Pythium ultimum; 80 mg/l soil): 4 | number of sound peas (Pythium ultimum; 80 mg/l soil): 20 | % activity (Tilletia caries; 20 g active agent per 100 kg): 98% | % activity (Tilletia caries; 50 g active agent per 100 kg): 100% | % activity (Plasmopara viticola; [4]): 80% | % activity (Plasmopara viticola; [2]): 90% | % activity (Helminthosporium gram; 10 g active agent per 100 kg): 72% | % activity (Helminthosporium gram; 20 g active agent per 100 kg): 98% | % activity (Helminthosporium gram; 50 g active agent per 100 kg): 99%

CS(=O)(=O)c1nnc(C(=O)N2CCC2)s1 [5-methylsulfonyl-1,3,4-thiadiazole-2-carboxylic acid-N,N-trimethylenamide]
root evaluation (1-4) (Pythium ultimum; 20 mg/l soil): 4 | number of sound peas (Pythium ultimum; 20 mg/l soil): 19 | root evaluation (1-4) (Pythium ultimum; 40 mg/l soil): 4 | number of sound peas (Pythium ultimum; 40 mg/l soil): 20 | root evaluation (1-4) (Pythium ultimum; 80 mg/l soil): 4 | number of sound peas (Pythium ultimum; 80 mg/l soil): 20 | % activity (Tilletia caries; 20 g active agent per 100 kg): 99% | % activity (Tilletia caries; 50 g active agent per 100 kg): 100% | % activity (Plasmopara viticola; [4]): 84% | % activity (Plasmopara viticola; [2]): 90%

CCC[S+]([O-])c1nnc(C#N)s1 (stereo not drawn) [5-propylsulfinyl-1,3,4-thiadiazole-2-carbonitrile]
number of sound peas (Fusarium avenaceum; 25 mg/l soil): 19 | root evaluation (1-4) (Fusarium avenaceum; 25 mg/l soil): 4 | number of sound peas (Fusarium avenaceum; 50 mg/l soil): 20 | root evaluation (1-4) (Fusarium avenaceum; 50 mg/l soil): 4 | number of sound peas (Fusarium avenaceum; 100 mg/l soil): 19 | root evaluation (1-4) (Fusarium avenaceum; 100 mg/l soil): 4 | root evaluation (1-4) (Pythium ultimum; 20 mg/l soil): 1 | number of sound peas (Pythium ultimum; 20 mg/l soil): 9 | root evaluation (1-4) (Pythium ultimum; 40 mg/l soil): 4 | number of sound peas (Pythium ultimum; 40 mg/l soil): 16 | root evaluation (1-4) (Pythium ultimum; 80 mg/l soil): 4 | number of sound peas (Pythium ultimum; 80 mg/l soil): 18 | % activity (Tilletia caries; 10 g active agent per 100 kg): 99% | % activity (Tilletia caries; 20 g active agent per 100 kg): 100% | % activity (Tilletia caries; 50 g active agent per 100 kg): 100% | % activity [1]: 99.3% | % activity (Plasmopara viticola; [3]): 100% | % activity (Plasmopara viticola; [4]): 100% | % activity (Plasmopara viticola; [2]): 100% | % activity (Helminthosporium gram; 20 g active agent per 100 kg): 87% | % activity (Helminthosporium gram; 50 g active agent per 100 kg): 99%

CCCS(=O)(=O)c1nnc(C(=O)OCC)s1 [5-propylsulfonyl-1,3,4-thiadiazole-2-carboxylic acid-ethylester]
% activity (Piricularia oryzae): 93%

CCC(C)S(=O)(=O)c1nnc(C(N)=O)s1 (stereo not drawn) [5-sec.-butylsulfonyl-1,3,4-thiadiazole-2-carboxamide]
% activity [1]: 94% | % activity (Helminthosporium gram; 50 g active agent per 100 kg): 97%
